For assay [1], the target named is T1, human MDM4 protein (amino acids 2-185) (Homo sapiens, UniProt O15151).
T1 construct: human MDM4 protein (amino acids 2-185); made in house
T1 sequence (O15151 2-185): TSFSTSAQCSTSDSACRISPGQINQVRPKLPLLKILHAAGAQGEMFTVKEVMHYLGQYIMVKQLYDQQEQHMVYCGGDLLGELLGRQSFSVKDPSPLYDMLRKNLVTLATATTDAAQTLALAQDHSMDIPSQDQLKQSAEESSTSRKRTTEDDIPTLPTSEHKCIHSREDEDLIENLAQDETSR
The assay is described as follows: p53-MDM4 TR-FRET assay (p53-MDM4 Assay 1). Format: binding. The following applies: 2.5 nM MDM4-biotinylated, 10 nM Cy5-p53 peptide; read-out: IC50 (μM) of p53-Hdm4 inhibition (TR-FRET) Assay 1. How it is done: (§1) Time Resolved Fluorescence Energy Transfer (TR-FRET) Assay
(§2) The inhibition of p53-MDM2 and p53-MDM4 interactions is measured by time resolved fluorescence energy transfer (TR-FRET). Fluorescence energy transfer (or Foerster resonance energy transfer) describes an energy transfer between donor and acceptor fluorescent molecules. For this assay, human MDM2 protein (amino acids 2-188) and human MDM4 protein (amino acids 2-185), tagged with a C-terminal biotin moiety, are used in combination with a Europium labeled streptavidin (Perkin Elmer, Inc., Waltham, Mass., USA) serving as the donor fluorophore. The p53 derived, Cy5 labeled peptide Cy5-TFSDLWKLL (p53 aa18-26) is the energy acceptor. Upon excitation of the donor molecule at 340 nm, binding interaction between MDM2 or MDM4 and the p53 peptide induces energy transfer and enhanced response at the acceptor emission wavelength at 665 nm. Disruption of the formation of the p53-MDM2 or p53-MDM4 complex due to an inhibitor molecule binding to the p53 binding site of MDM2 or MDM4 results in increased donor emission at 620 nm. The ratiometric FRET assay readout is calculated from the raw data of the two distinct fluorescence signals measured in time resolved mode (fluorescence 665 nm/fluorescence 620 nm×1000).
(§3) After addition of 1.25 nM MDM2-biotinylated or 2.5 nM MDM4-biotinylated (internal preparations), and 0.625 nM Europium labeled streptavidin (Perkin Elmer), the solution is pre-incubated for 15 minutes at room temperature, then 10 nM Cy5-p53 peptide (internal preparation) is added before an incubation at room temperature for 15 minutes prior to reading the plate. For measurement of samples, a Victor II microplate reader (Perkin Elmer) is used with the following settings: Excitation 340 nm, Emission Donor 620 nm and Emission Acceptor 665 nm. IC50 values are calculated by curve fitting using XLfit. If not specified, reagents are purchased from Sigma-Aldrich Chemie GmBH, Buchs, Switzerland.
(§4) This assay was used to evaluate compounds displaying inhibition of p53-MDM2 interaction and p53-MDM4 interaction at IC50s of 0.005 to 50 μM (p53-MDM2 Assay 1 and p53-MDM4 Assay 1, respectively). For selected compounds displaying IC50s between […] on MDM2, a slightly modified assay is used with the following adaptations: 0.1 nM MDM2, 0.1 nM Europium labeled streptavidin and Tecan genios Pro is used as a microplate reader for the fluorescence measurements (p53-MDM2 Assay 2).
(Time-resolved FRET reads energy transfer from a long-lived donor to a nearby acceptor.)

Assay [2] deals with T2, human MDM2 protein (amino acids 2-188) (Homo sapiens, UniProt Q00987).
T2 construct: human MDM2 protein (amino acids 2-188); made in house
The assay is described as follows: p53-MDM2 TR-FRET assay (p53-MDM2 Assay 1). The format is binding. The following applies: 1.25 nM MDM2-biotinylated, 10 nM Cy5-p53 peptide; read-out: IC50 (μM) of p53-Hdm2 inhibition (TR-FRET) Assay 1. The procedure:
as §1, §2, §3, §4

Structures are written as SMILES.

T2 sequence (Q00987 2-188): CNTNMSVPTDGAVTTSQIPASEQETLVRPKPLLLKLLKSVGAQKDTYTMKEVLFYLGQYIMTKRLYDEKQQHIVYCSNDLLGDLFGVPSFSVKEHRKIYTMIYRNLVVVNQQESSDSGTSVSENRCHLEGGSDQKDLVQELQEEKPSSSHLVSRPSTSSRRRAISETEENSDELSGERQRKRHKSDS

Broadly, the IC50 is the concentration that inhibits the measured activity by half. For the compound `COc1cc2c(cc1OC(C)C)[C@H](c1ccc(Cl)cc1)N(c1ccc(C(C)(O)c3cccnc3)cn1)C(=O)C2` (stereo partly drawn) [Example 15, (S)-1-(4-Chloro-phenyl)-2-[5-(1-hydroxy-1-pyridin-3-yl-ethyl)-pyridin-2-yl]-7-isopropoxy-6-methoxy-1,4-dihydro-2H-isoquinolin-3-one], the half-inhibitory concentration (IC50) in assay [1] amounted to 61.1 µM; in assay [2], 0.0404 µM.

On to `COc1cc2c(cc1OC(C)C)[C@H](c1ccc(Cl)cc1)N(c1ccc(C(C)(O)c3cccnc3)cc1)C(=O)C2` (stereo partly drawn) [Example 16, (S)-1-(4-Chloro-phenyl)-2-[4-(1-hydroxy-1-pyridin-3-yl-ethyl)-phenyl]-7-isopropoxy-6-methoxy-1,4-dihydro-2H-isoquinolin-3-one], for which the IC50 worked out at 8.42 µM in assay [1] and 0.0058 µM in assay [2].

Consider `COc1cc2c(cc1OC(C)C)[C@H](c1ccc(Cl)cc1)N(c1ccc(C(C)(O)c3ccncc3)cc1)C(=O)C2` (stereo partly drawn) [Example 17, (S)-1-(4-Chloro-phenyl)-2-[4-(1-hydroxy-1-pyridin-4-yl-ethyl)-phenyl]-7-isopropoxy-6-methoxy-1,4-dihydro-2H-isoquinolin-3-one], for which the IC50 worked out at 7.73 µM in assay [1] and 0.0068 µM in assay [2].

Regarding `COc1cc2c(cc1OC(C)C)[C@H](c1ccc(Cl)cc1)N(c1ccc(C(C)(O)c3ccccn3)cc1)C(=O)C2` (stereo partly drawn) [Example 18, (S)-1-(4-Chloro-phenyl)-2-[4-(1-hydroxy-1-pyridin-2-yl-ethyl)-phenyl]-7-isopropoxy-6-methoxy-1,4-dihydro-2H-isoquinolin-3-one], the half-inhibitory concentration (IC50) in assay [1] came out at 37.2 µM; in assay [2], 0.0368 µM.

Turning to `COc1cc2c(cc1OC(C)C)[C@H](c1ccc(Cl)cc1)N(c1ccc(C(C)(O)c3ccc(F)c(F)c3)cc1)C(=O)C2` (stereo partly drawn) [Example 19, (S)-1-(4-Chloro-phenyl)-2-{4-[1-(3,4-difluoro-phenyl)-1-hydroxy-ethyl]-phenyl}-7-isopropoxy-6-methoxy-1,4-dihydro-2H-isoquinolin-3-one], the half-maximal inhibitory concentration (IC50) in assay [1] is 87.2 µM; in assay [2], 0.0446 µM.

As for `COc1cc(OC)cc(C(C)(O)c2ccc(N3C(=O)Cc4cc(OC)c(OC(C)C)cc4[C@@H]3c3ccc(Cl)cc3)cc2)c1` (stereo partly drawn) [Example 22, (S)-1-(4-Chloro-phenyl)-2-{4-[1-(3,5-dimethoxy-phenyl)-1-hydroxy-ethyl]-phenyl}-7-isopropoxy-6-methoxy-1,4-dihydro-2H-isoquinolin-3-one], the IC50 in assay [1] stood at 21.7 µM; in assay [2] it was 0.0225 µM.

Regarding `COc1ccc(C(C)(O)c2ccc(N3C(=O)Cc4cc(OC)c(OC(C)C)cc4[C@@H]3c3ccc(Cl)cc3)cc2)cn1` (stereo partly drawn) [Example 23, (S)-1-(4-Chloro-phenyl)-2-{4-[1-hydroxy-1-(6-methoxy-pyridin-3-yl)-ethyl]-phenyl}-7-isopropoxy-6-methoxy-1,4-dihydro-2H-isoquinolin-3-one], the half-inhibitory concentration (IC50) in assay [1] was determined as 24.7 µM; in assay [2], 0.0159 µM.

For `COc1cc2c(cc1OC(C)C)[C@H](c1ccc(Cl)cc1)N(c1ccc(C(C)(O)c3ccc(NC(C)=O)cc3)nc1)C(=O)C2` (stereo partly drawn) [Example 24, N-[4-(1-{5-[(S)-1-(4-Chloro-phenyl)-7-isopropoxy-6-methoxy-3-oxo-3,4-dihydro-1H-isoquinolin-2-yl]-pyridin-2-yl}-1-hydroxy-ethyl)-phenyl]-acetamide], the concentration for half-maximal inhibition (IC50) in assay [1] was 61.3 µM; in assay [2], 0.0544 µM.

As for `COc1cc2c(cc1OC(C)C)[C@H](c1ccc(Cl)cc1)N(c1ccc(C(C)(O)c3ccc(NC(C)=O)cc3)cn1)C(=O)C2` (stereo partly drawn) [Example 25, N-[4-(1-{6-[(S)-1-(4-Chloro-phenyl)-7-isopropoxy-6-methoxy-3-oxo-3,4-dihydro-1H-isoquinolin-2-yl]-pyridin-3-yl}-1-hydroxy-ethyl)-phenyl]-acetamide], the IC50 in assay [1] stood at 19.5 µM; in assay [2], 0.0112 µM.

`COc1cc2c(cc1OC(C)C)[C@H](c1ccc(Cl)cc1)N(c1ccc([C@@](C)(O)c3ccc(NC(C)=O)cc3)cc1)C(=O)C2` [Example 26, N-[4-((S)-1-{4-[(S)-1-(4-Chloro-phenyl)-7-isopropoxy-6-methoxy-3-oxo-3,4-dihydro-1H-isoquinolin-2-yl]-phenyl}-1-hydroxy-ethyl)-phenyl]-acetamide]: the IC50 in assay [1] turned out to be 8.25 µM; in assay [2] it was 0.0043 µM.

`COc1cc2c(cc1OC(C)C)[C@H](c1ccc(Cl)cc1)N(c1ccc([C@](C)(O)c3ccc(NC(C)=O)cc3)cc1)C(=O)C2` [Example 27, N-[4-((R)-1-{4-[(S)-1-(4-Chloro-phenyl)-7-isopropoxy-6-methoxy-3-oxo-3,4-dihydro-1H-isoquinolin-2-yl]-phenyl}-1-hydroxy-ethyl)-phenyl]-acetamide]: the IC50 was found to be 36.3 µM in assay [1] and 0.0458 µM in assay [2].

In the case of `COc1cc2c(cc1OC(C)C)[C@H](c1ccc(Cl)cc1)N(c1ccc(C(C)(O)c3ccc(NC(C)=O)cc3)c(F)c1)C(=O)C2` (stereo partly drawn) [Example 28, N-[4-(1-{4-[(S)-1-(4-Chloro-phenyl)-7-isopropoxy-6-methoxy-3-oxo-3,4-dihydro-1H-isoquinolin-2-yl]-2-fluoro-phenyl}-1-hydroxy-ethyl)-phenyl]-acetamide], the IC50 came out at 9.7 µM in assay [1] and 0.0066 µM in assay [2].

As for `COc1cc2c(cc1OC(C)C)[C@H](c1ccc(Cl)cc1)N(c1ccc(C(C)(O)CNC(C)=O)cc1)C(=O)C2` (stereo partly drawn) [Example 29, N-(2-{4-[(S)-1-(4-Chloro-phenyl)-7-isopropoxy-6-methoxy-3-oxo-3,4-dihydro-1H-isoquinolin-2-yl]-phenyl}-2-hydroxy-propyl)-acetamide], the IC50 in assay [1] amounted to 39.7 µM; in assay [2], 0.143 µM.

For the compound `COc1cc2c(cc1OC(C)C)[C@H](c1ccc(Cl)cc1)N(c1ccc(C(C)(O)C3CCN(C(C)=O)CC3)cc1)C(=O)C2` (stereo partly drawn) [Example 31, (S)-2-{4-[1-(1-Acetyl-piperidin-4-yl)-1-hydroxy-ethyl]-phenyl}-1-(4-chloro-phenyl)-7-isopropoxy-6-methoxy-1,4-dihydro-2H-isoquinolin-3-one], the values for the IC50 in assay [1] and in assay [2] were 2.31 µM and 0.0023 µM, respectively.

On to `COc1cc2c(cc1OC(C)C)[C@H](c1ccc(Cl)cc1)N(c1ccc(C(C)(O)C3CCOCC3)cc1OC)C(=O)C2` (stereo partly drawn) [Example 36, (S)-1-(4-Chloro-phenyl)-2-{4-[1-hydroxy-1-(tetrahydro-pyran-4-yl)-ethyl]-2-methoxy-phenyl}-7-isopropoxy-6-methoxy-1,4-dihydro-2H-isoquinolin-3-one], for which the values for the 50% inhibitory concentration (IC50) in assay [1] and in assay [2] were 6.03 µM and 0.0051 µM, respectively.

As for `COc1cc2c(cc1OC(C)C)[C@H](c1ccc(Cl)cc1)N(c1ccc(C(C)(O)C3CCOCC3)cn1)C(=O)C2` (stereo partly drawn) [Example 37, (S)-1-(4-Chloro-phenyl)-2-{5-[1-hydroxy-1-(tetrahydro-pyran-4-yl)-ethyl]-pyridin-2-yl}-7-isopropoxy-6-methoxy-1,4-dihydro-2H-isoquinolin-3-one], the half-inhibitory concentration (IC50) in assay [1] was determined as 13.8 µM; in assay [2] it was 0.0117 µM.

`COc1cc2c(cc1OC(C)C)[C@H](c1ccc(Cl)cc1)N(c1ccc(C(O)C3CCOCC3)cc1)C(=O)C2` (stereo partly drawn) [Example 40, (S)-1-(4-Chloro-phenyl)-2-{4-[hydroxy-(tetrahydro-pyran-4-yl)-methyl]-phenyl}-7-isopropoxy-6-methoxy-1,4-dihydro-2H-isoquinolin-3-one]: the results for the IC50 in assay [1] and in assay [2] were 31.6 µM and 0.0328 µM, respectively.

In the case of `COc1cc2c(cc1OC(C)C)[C@H](c1ccc(Cl)cc1)N(c1ccc(C(C)(O)C3CCN(C(=O)OC(C)(C)C)CC3)cc1)C(=O)C2` (stereo partly drawn) [Example 42, 4-(1-{4-[(S)-1-(4-Chloro-phenyl)-7-isopropoxy-6-methoxy-3-oxo-3,4-dihydro-1H-isoquinolin-2-yl]-phenyl}-1-hydroxy-ethyl)-piperidine-1-carboxylic acid tert-butyl ester], the IC50 in assay [1] was found to be 14.9 µM; in assay [2], 0.0091 µM.

(Values after patent publication US8859535B2, “Hydroxy substituted isoquinolinone derivatives” (Novartis AG, priority 2011, dated 2014).)
